Consider 28 compounds from patent US9540357B1, “15-aryl prostaglandins as EP4 agonists, and methods of use thereof” (Allergan, Inc., priority 2014, dated 2017).

“And” between values parts separate entries of the source, which are not always exact repeats. Equal entries are not always repeated.

The target in assay [1] is EP2 (Homo sapiens (Human), UniProt P43116). Put plainly: Competition binding ([3H]PGE2), EP2. To be noted: HEK 293 cells stably expressing human EP2 receptors, [3H]PGE2 10 nM. On the procedure:
Competition binding experiments were performed in a medium containing Hank's balanced salt solution, HEPES 20 mM, pH 7.3, membranes (˜60 μg protein) or 2×10^5 cells from HEK 293 cells stably expressing human EP2 receptors, [^3H]PGE2 (10 nM) and various concentrations of test compounds in a total volume of 300 μl. Reaction mixtures were incubated at 23° C. for 60 min, and were filtered over Whatman GF/B filters under vacuum. Filters were washed three times with 5 ml ice-cold buffer containing 50 mM Tris/HCl (pH 7.3). Non-specific binding was estimated in the presence of excess unlabeled PGE2 (10 μM). Binding data fitted to the binding model for a single class of binding sites, using nonlinear regression analysis. IC50 values thus obtained were converted to Ki using the equation of Ki=(IC50/(1+[L]/KD) where [L] represents PGE2 concentration (10 nM) and KD the dissociation constant for [^3H]PGE2 at human EP2 receptors (40 nM).

For assay [2], the target named is T1, EP4 (Homo sapiens (Human), UniProt P35408). Put plainly: cAMP assay, EP4. The format is cell-based. Particulars: HEK-EBNA cells expressing EP4. How it is done:
A 384-well drug plate was prepared to contain 6 test compounds, PGE2 and cAMP in 16 serial dilutions in triplicate, using a Biomek station. HEK-EBNA cells expressing a target PG receptor subtype (EP2 or EP4) were suspended in a stimulation buffer (HBSS, 0.1% BSA, 0.5 mM IBMX and 5 mM HEPES, pH 7.4) in a density of 10^4 cells/5 microliters. The reaction was initiated by mixing 5 microliters drug dilutions with 5 microliters of HEK-EBNA cells in a well, carried out for 30 min at room temperature, and followed by the addition of 5 microliters anti-cAMP acceptor beads in the control buffer with Tween-20 (25 mM NaCl, 0.03% Tween-20, 5 mM HEPES, pH 7.4). After 30 min in the dark at room temperature, the mixtures were incubated with 15 microliters biotinylated-cAMP/streptavidin donor beads in Lysis/Detection buffer (0.1% BSA, 0.3% Tween-20 and 5 mM HEPES, pH 7.4) for 45 min at room temperature. Fluorescence changes were read using a Fusion-alpha microplate reader.

Assay [3] deals with T1, EP4. The experiment in a line: Competition binding, EP4.

EP2, sequence (P43116 whole entry): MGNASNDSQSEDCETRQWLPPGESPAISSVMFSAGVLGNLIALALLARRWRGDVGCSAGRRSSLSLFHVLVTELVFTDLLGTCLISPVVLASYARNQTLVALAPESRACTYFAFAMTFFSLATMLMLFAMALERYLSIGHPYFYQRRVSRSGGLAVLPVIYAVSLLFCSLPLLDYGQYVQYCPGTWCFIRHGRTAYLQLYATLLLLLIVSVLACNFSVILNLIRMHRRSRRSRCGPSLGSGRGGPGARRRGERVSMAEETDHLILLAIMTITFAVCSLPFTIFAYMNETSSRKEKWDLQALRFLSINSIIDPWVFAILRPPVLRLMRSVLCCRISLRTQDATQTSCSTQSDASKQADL
T1 sequence (P35408 whole entry): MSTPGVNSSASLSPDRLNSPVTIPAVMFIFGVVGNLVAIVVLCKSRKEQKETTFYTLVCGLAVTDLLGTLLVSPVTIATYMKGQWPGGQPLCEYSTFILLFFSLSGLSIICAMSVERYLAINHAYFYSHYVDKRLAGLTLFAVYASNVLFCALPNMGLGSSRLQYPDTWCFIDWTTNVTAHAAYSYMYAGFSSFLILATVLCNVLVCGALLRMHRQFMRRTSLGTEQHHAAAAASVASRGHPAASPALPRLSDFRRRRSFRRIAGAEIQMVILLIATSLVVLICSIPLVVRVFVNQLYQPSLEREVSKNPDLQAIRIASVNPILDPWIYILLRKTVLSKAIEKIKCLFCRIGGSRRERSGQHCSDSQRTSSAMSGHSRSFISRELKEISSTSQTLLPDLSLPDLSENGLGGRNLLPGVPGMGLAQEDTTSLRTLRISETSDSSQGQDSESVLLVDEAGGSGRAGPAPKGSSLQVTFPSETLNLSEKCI

The term Ki denotes the equilibrium dissociation constant of an inhibitor or competing ligand from its target. For `O=C(O)c1ccc(CCCN2C(=O)CC[C@@H]2/C=C/C(O)c2cccc(Br)c2)cc1` (single isomer, unassigned) [Example 1], the EP2 Ki in assay [1] was > 10000 nM. Also, the EP4 cAMP EC50 in assay [2] is > 10000 nM. In addition, the Ki in assay [3] is 2040 nM.
By EC50 is commonly meant the concentration that produces a half-maximal response. In the case of `O=C(O)c1ccc(CCCN2C(=O)CC[C@@H]2/C=C/C(O)c2ccccc2)cc1` (single isomer, unassigned) [Example 3], the EP2 Ki in assay [1] was > 10000 nM. In assay [2], the concentration giving a half-maximal response (EC50) came to 9210 nM. The EP4 Ki in assay [3] was > 10000 nM.
With `O=C(O)c1ccc(CCCN2C(=O)CC[C@@H]2/C=C/C(O)c2ccccc2)cc1` (single isomer, unassigned) [Example 4], in assay [1], the EP2 Ki was > 10000 nM. The compound also had an EC50 in assay [2] of 5540 nM. For the same compound, the affinity in assay [3] corresponds to a Ki of 4970 nM.
For the compound `O=C(O)c1ccc(CCCN2C(=O)CC[C@@H]2/C=C/C(O)c2cccc(-c3ccccc3)c2)cc1` (single isomer, unassigned) [Example 5], the EP2 Ki in assay [1] was > 10000 nM. Also, in assay [3], the Ki amounted to 8560 nM.
As for `O=C(O)c1ccc(CCCN2C(=O)CC[C@@H]2/C=C/C(O)c2cccc(-c3ccccc3)c2)cc1` (single isomer, unassigned) [Example 6], in assay [1], the EP2 Ki is > 10000 nM. Further, in assay [2], the EP4 cAMP EC50 was > 10000 nM. The Ki in assay [3] was 6710 nM.
Consider `Cc1ccccc1-c1cccc(C(O)/C=C/[C@H]2CCC(=O)N2CCCc2ccc(C(=O)O)cc2)c1` (single isomer, unassigned) [Example 7], for which, in assay [1], the EP2 Ki is > 10000 nM. In assay [2], the EC50 was 14 nM. The Ki in assay [3] is 1150 nM.
Regarding `Cc1ccccc1-c1cccc(C(O)/C=C/[C@H]2CCC(=O)N2CCCc2ccc(C(=O)O)cc2)c1` (single isomer, unassigned) [Example 8], in assay [1], the EP2 Ki was > 10000 nM. This compound came in with an EC50 in assay [2] of 2 nM. This compound had a Ki in assay [3] of 159 nM.
Taken in the same sequence, the figures for `CCc1cc(Cl)ccc1-c1cccc(C(O)/C=C/[C@H]2CCC(=O)N2CCCc2ccc(C(=O)O)cc2)c1` (single isomer, unassigned) [Example 14] were > 10000 nM, 33 nM and 216 nM.
On to `CCc1cc(Cl)ccc1-c1cccc(C(O)/C=C/[C@H]2CCC(=O)N2CCCc2ccc(C(=O)O)cc2)c1` (single isomer, unassigned) [Example 15], for which the EP2 Ki in assay [1] is > 10000 nM. In assay [2], this compound returned an EC50 of 3 nM. Besides, in assay [3], the inhibitory constant (Ki) turned out to be 6 nM.
The matching figures for `O=C(O)c1ccc(CCCN2C(=O)CC[C@@H]2/C=C/C(O)c2cccc(-c3ccc(Cl)cc3C(F)(F)F)c2)cc1` (single isomer, unassigned) [Example 16]: > 10000 nM, 87 nM and 332 nM.
For the compound `O=C(O)c1ccc(CCCN2C(=O)CC[C@@H]2/C=C/C(O)c2cccc(-c3ccc(Cl)cc3C(F)(F)F)c2)cc1` (single isomer, unassigned) [Example 17], the EP2 Ki in assay [1] was > 10000 nM. This compound registered an EC50 in assay [2] of 3 nM. In assay [3], this compound yielded a Ki of 11 nM.
In the case of `Cc1cc(Cl)cc(C)c1-c1cccc(C(O)/C=C/[C@H]2CCC(=O)N2CCCc2ccc(C(=O)O)cc2)c1` (single isomer, unassigned) [Example 20], the EP2 Ki in assay [1] was > 10000 nM. This compound also yielded an EC50 in assay [2] of 138 nM. In assay [3], this compound returned a Ki of 955 nM.
Taken in the same sequence, the figures for `Cc1cc(Cl)cc(C)c1-c1cccc(C(O)/C=C/[C@H]2CCC(=O)N2CCCc2ccc(C(=O)O)cc2)c1` (single isomer, unassigned) [Example 21] were > 10000 nM, 2 nM and 60 nM.
For `Cc1c(-c2cccc(C(O)/C=C/[C@H]3CCC(=O)N3CCCc3ccc(C(=O)O)cc3)c2)ccc(Cl)c1Cl` (single isomer, unassigned) [Example 22], the EP2 Ki in assay [1] is > 10000 nM. The compound also registered an EC50 in assay [2] of 35 nM. In assay [3], this compound returned an inhibitory constant (Ki) of 2340 nM.
Taken in the same sequence, the figures for `Cc1c(-c2cccc(C(O)/C=C/[C@H]3CCC(=O)N3CCCc3ccc(C(=O)O)cc3)c2)ccc(Cl)c1Cl` (single isomer, unassigned) [Example 23] were > 10000 nM, 3 nM and 140 nM.
The matching figures for `CCCc1cc(Cl)ccc1-c1cccc(C(O)/C=C/[C@H]2CCC(=O)N2CCCc2ccc(C(=O)O)cc2)c1` (single isomer, unassigned) [Example 24]: > 10000 nM, 2340 nM and 1310 nM.
Take `CCCc1cc(Cl)ccc1-c1cccc(C(O)/C=C/[C@H]2CCC(=O)N2CCCc2ccc(C(=O)O)cc2)c1` (single isomer, unassigned) [Example 25]: the EP2 Ki in assay [1] was > 10000 nM. In assay [2], this compound had an EC50 of 63 nM. Besides, the Ki in assay [3] came out at 130 nM.
The matching figures for `Cc1cc(Cl)ccc1-c1cc(F)cc(C(O)/C=C/[C@H]2CCC(=O)N2CCCc2ccc(C(=O)O)cc2)c1` (single isomer, unassigned) [Example 34]: > 10000 nM, 1740 nM and 4340 nM.
On to `Cc1cc(Cl)ccc1-c1cc(F)cc(C(O)/C=C/[C@H]2CCC(=O)N2CCCc2ccc(C(=O)O)cc2)c1` (single isomer, unassigned) [Example 35], for which, in assay [1], the EP2 Ki is > 10000 nM. The concentration for a half-maximal effect (EC50) in assay [2] is 59 nM and 99 nM. In assay [3], this compound registered a Ki of 352 nM.
For the compound `Cc1cc(Cl)ccc1-c1cc(C(O)/C=C/[C@H]2CCC(=O)N2CCCc2ccc(C(=O)O)cc2)ccc1F` (single isomer, unassigned) [Example 36], the EP2 Ki in assay [1] is > 10000 nM. This compound gave a half-maximal effective concentration (EC50) in assay [2] of 1030 nM. In assay [3], this compound yielded a Ki of 4480 nM.
For the compound `Cc1cc(Cl)ccc1-c1cc(C(O)/C=C/[C@H]2CCC(=O)N2CCCc2ccc(C(=O)O)cc2)ccc1F` (single isomer, unassigned) [Example 37], in assay [2], the EC50 was 123 nM and 211 nM.
For the compound `Cc1cc(F)ccc1-c1cccc(C(O)/C=C/[C@H]2CCC(=O)N2CCCc2ccc(C(=O)O)cc2)c1` (stereo partly drawn) [Example 11, 4-(3-{2(R)-[(1E)-3-(4′-fluoro-2′-methylbiphenyl-3-yl)-3-hydroxyprop-1-en-1-yl]-5-oxopyrrolidin-1-yl}propyl)benzoic acid], the EP2 Ki in assay [1] is > 10000 nM. For the same compound, the Ki in assay [3] is > 1340 nM.
Consider `Cc1cc(F)ccc1-c1cccc(C(O)/C=C/[C@H]2CCC(=O)N2CCCc2ccc(C(=O)O)cc2)c1` (stereo partly drawn) [Example 12, 4-(3-{2(R)-[(1E)-3-(4′-fluoro-2′-methylbiphenyl-3-yl)-3-hydroxyprop-1-en-1-yl]-5-oxopyrrolidin-1-yl}propyl)benzoic acid], for which the EP2 Ki in assay [1] was > 10000 nM. Also, a half-maximal response in assay [2] (EC50) required 8 nM. The same compound returned a Ki in assay [3] of 53 nM.
On to `Cc1cc(Cl)ccc1-c1cccc(C(O)/C=C/[C@H]2CCC(=O)N2CCCc2ccc(C(=O)O)cc2)c1` (stereo partly drawn) [Example 13, 4-(3-{2(R)-[(1E)-3-(4′-chloro-2′-methylbiphenyl-3-yl)-3-hydroxyprop-1-en-1-yl]-5-oxopyrrolidin-1-yl}propyl)benzoic acid], for which the Ki in assay [1] came out at 4320 nM; in assay [3], 23 nM. This compound had an EC50 in assay [2] of 4 nM.
Regarding `O=C(O)c1ccc(CCCN2C(=O)CC[C@@H]2/C=C/C(O)c2cccc(-c3ccc(Cl)cc3CO)c2)cc1` (stereo partly drawn) [Example 18, 4-[3-(2(R)-{(1E)-3-[4′-chloro-2′-(hydroxymethyl)biphenyl-3-yl]-3-hydroxyprop-1-en-1-yl}-5-oxopyrrolidin-1-yl)propyl]benzoic acid], the EP2 Ki in assay [1] was > 10000 nM. In addition, the EP4 cAMP EC50 in assay [2] was > 10000 nM. For the same compound, the EP4 Ki in assay [3] was > 10000 nM.
Take `O=C(O)c1ccc(CCCN2C(=O)CC[C@@H]2/C=C/C(O)c2cccc(-c3ccc(Cl)cc3CO)c2)cc1` (stereo partly drawn) [Example 19, 4-[3-(2(R)-{(1E)-3-[4′-chloro-2′-(hydroxymethyl)biphenyl-3-yl]-3-hydroxyprop-1-en-1-yl}-5-oxopyrrolidin-1-yl)propyl]benzoic acid]: the EP2 Ki in assay [1] was > 10000 nM. For the same compound, the EC50 in assay [2] is 95 nM and 165 nM. This compound showed a Ki in assay [3] of 658 nM.
As for `CCCCc1cc(Cl)ccc1-c1cccc(C(O)/C=C/[C@H]2CCC(=O)N2CCCc2ccc(C(=O)O)cc2)c1` (stereo partly drawn) [Example 28, 4-(3-{2(R)-[(1E)-3-(2′-butyl-4′-chlorobiphenyl-3-yl)-3-hydroxyprop-1-en-1-yl]-5-oxopyrrolidin-1-yl}propyl)benzoic acid], in assay [1], the EP2 Ki was > 10000 nM. The Ki in assay [3] is 5160 nM.
The matching figures for `Cc1cc(Cl)ccc1-c1ccc(C(O)/C=C/[C@H]2CCC(=O)N2CCCc2ccc(C(=O)O)cc2)s1` (stereo partly drawn) [Example 32, 4-[3-(2(R)-{(1E)-3-[5-(4-chloro-2-methylphenyl)thiophen-2-yl]-3-hydroxyprop-1-en-1-yl}-5-oxopyrrolidin-1-yl)propyl]benzoic acid]: > 10000 nM and 4830 nM.
